Experiments:
Assay type in all cases: physicochemical
[1] = T1-relaxivity (r1) of Fe3+ versus Fe2+ complex at pH 7.4; conditions: for relaxivity r1: normalized to Fe concentration, Fe^2+ formed in situ with excess sodium ascorbate
Text: FIG. 7 compares the relaxivity (r1; the Fe induced increase in T1 relaxation rate (R1) normalized to Fe concentration in mM) recorded for Fe^3+-CDTA-Ph-3,5-CF3 and Fe^2+-CDTA-Ph-3,5-CF3 at pH 7.4.
(§1) The term “relaxivity” as used herein, refers to the increase in either of the MR quantities 1/T1 or 1/T2 per millimolar (mM) concentration of paramagnetic ion or contrast agent, which quantities may be different if the contrast agent contains a multiplicity of paramagnetic ions, wherein T1 is the longitudinal or spin-lattice relaxation time, and T2 is the transverse or spin-spin relaxation time of water protons or other imaging or spectroscopic nuclei, including protons found in molecules other than water. Relaxivity is expressed in units of mM^−1s^−1.
FIG. 7 compares the relaxivity (r1; the Fe induced increase in T1 relaxation rate (R1) normalized to Fe concentration in mM) recorded for Fe^3+-CDTA-Ph-3,5-CF3 and Fe^2+-CDTA-Ph-3,5-CF3 at pH 7.4. The Fe^2+ complex was formed in situ by addition of excess sodium ascorbate. The r1 values for the Fe^3+ complex ([…] mM^−1s^−1) is 7.5-times greater than the sister Fe^2+ complex (2.8±0.003 mM^−1s^−1).

[2] = Cyclic voltammetry; conditions: 0.5 M KNO3, GC working, Ag/AgCl reference, Pt counter electrode
[3] = pH-potentiometric titration combined with EDTA competition assay; conditions: estimated
Procedure: The title compound was synthesized in situ by mixing the compound obtained in step 1 with 0.5 molar equiv. Fe2(SO4)3, (i.e., 1 molar equiv. Fe^3+). In one representative sample preparation, used for pH-potentiometry measurements, 7.2 mg (0.011 mmol) Ligand were mixed with 4.4 mg (0.011 mmol Fe) were mixed in 3.4 mL water (with 0.1 M NaCl), and the pH adjusted using 0.1 M NaOH. ESI-MS for [C22H22F6FeN3O7]^−: m/z [M^−]=609.1 (calc.); m/z=609.1(obsv.)
From the titration data (performed in combination with EDTA competition assay at pH 3), a log K=23.7 s estimated for Fe-CDTA-Ph-3,5-CF3.

[4] = T1-relaxivity (r1) as a function of pH
Text: FIG. 5A compares the pH-dependence on T1-relaxivity (r1; the Fe induced increase in T1 relaxation rate (R1) normalized to Fe concentration in mM) for the structurally related Fe^3+ complexes Fe-CDTA-Ph-3,5-CF3 and Fe-PyCy2AI.
as §1
FIG. 5, Panel A, compares the pH-dependence on T1-relaxivity (r1; the Fe induced increase in T1 relaxation rate (R1) normalized to Fe concentration in mM) for the structurally related Fe^3+ complexes Fe-CDTA-Ph-3,5-CF3 and Fe-PyCy2AI.

ratio of r1 Fe^3+ complex to Fe^2+ complex ([1]; pH 7.4)	relaxivity r1 ([1]; pH 7.4) [mM⁻¹ s⁻¹]	ratio of r1 Fe^3+ complex to Fe^2+ complex (heading of Example 5) ([1]; stated in heading)	oxidation and reduction waves, reversibility ([2]; pH 3)	separation of oxidation and reduction waves ([2]; pH 8) [V]	log K (Fe^3+ complex stability) ([3]; pH-potentiometric titration in combination with EDTA competition assay at pH 3)	pKa ([3]; water, 0.1 m nacl, pH-potentiometric titration, 1 molar equiv. Fe^3+, read-out: pKa (deprotonation of ML to MLH−1))	speciation at pH 7.4 ([4]; pH 7.4)	r1 (T1-relaxivity), comparison in words ([4]; pH 7.4, compared with Fe-PyC3A / Fe-PyCy2AI)	pKa ([4]; r1 vs pH, read-out: pKa of the Fe^3+ water co-ligand)	SMILES
7.5 -times	2.1 ± 0.11	10 -fold	reversible oxidation and reduction waves	~1	23.7	4.9	dominated by the monomeric complex	much greater	> 7.4	O=C(O)CN(CC(=O)O)C1CCCCC1N(CC(=O)O)CC(=O)Nc1cc(C(F)(F)F)cc(C(F)(F)F)c1.[Fe+3] (centres unmarked) [Fe-CDTA-Ph-3,5-CF3]
–	2.8 ± 0.003	–	–	–	–	–	–	–	–	O=C(O)CN(CC(=O)O)C1CCCCC1N(CC(=O)O)CC(=O)Nc1cc(C(F)(F)F)cc(C(F)(F)F)c1.[Fe+2] (centres unmarked) [Fe^2+-CDTA-Ph-3,5-CF3]

Reference: US20260337214A1, “IRON BASED MRI PROBES” (The General Hospital Corporation, priority 2022, published 2026)
